Data: paper PMC7460240 (Biomedicines, 2020)
Converted amounts (≈) assume the structure as drawn. Where a name gives a salt, the structure may show the parent alone. Blank lines part the entries; values can stand above or below the molecule they belong to.

Columns and labels:
[1] = tested on: H295R cells; experiment: Cytotoxicity assay (neutral red, 48 h) on H295R cells; type: cell-based, human
Description: (§1) Cytotoxicity assays on H295R cells were carried out as previously described. Briefly, H295R cells were grown in 96-well plates to achieve 70% to 80% confluence. […] An amount of 100 µL of medium containing increasing concentrations of dxr was then added. […] After 48 h, cells were incubated 3 h at 37 °C with neutral red (NR) solution following the manufacturer’s protocol. Absorbance was measured in a microplate reader (Multiskan Go Microplate Spectrophotometer from Thermo Fisher Scientific, Illkirch, France).

[2] = tested on: H295R cells; experiment: cells; settings: Homo sapiens, NCI-H295R, 168 h, read-out: Dxr-IC50 (proliferation), astemizole 0 µM
[3] = target: T1, Ptch1 (Homo sapiens, UniProt Q13635); experiment: Screening on the resistance to doxorubicin of yeast expressing human Ptch1 (growth, OD600); type: cell-based; parameters: expressed in transfected cells; host or cells: Saccharomyces cerevisiae strain K699; settings: 10 µM compound; for effect on resistance/growth of hPtch1-expressing yeast in the presence of dxr: 10 µM dxr, 18 °C, about 72 h
T1 sequence (Q13635 1-1447): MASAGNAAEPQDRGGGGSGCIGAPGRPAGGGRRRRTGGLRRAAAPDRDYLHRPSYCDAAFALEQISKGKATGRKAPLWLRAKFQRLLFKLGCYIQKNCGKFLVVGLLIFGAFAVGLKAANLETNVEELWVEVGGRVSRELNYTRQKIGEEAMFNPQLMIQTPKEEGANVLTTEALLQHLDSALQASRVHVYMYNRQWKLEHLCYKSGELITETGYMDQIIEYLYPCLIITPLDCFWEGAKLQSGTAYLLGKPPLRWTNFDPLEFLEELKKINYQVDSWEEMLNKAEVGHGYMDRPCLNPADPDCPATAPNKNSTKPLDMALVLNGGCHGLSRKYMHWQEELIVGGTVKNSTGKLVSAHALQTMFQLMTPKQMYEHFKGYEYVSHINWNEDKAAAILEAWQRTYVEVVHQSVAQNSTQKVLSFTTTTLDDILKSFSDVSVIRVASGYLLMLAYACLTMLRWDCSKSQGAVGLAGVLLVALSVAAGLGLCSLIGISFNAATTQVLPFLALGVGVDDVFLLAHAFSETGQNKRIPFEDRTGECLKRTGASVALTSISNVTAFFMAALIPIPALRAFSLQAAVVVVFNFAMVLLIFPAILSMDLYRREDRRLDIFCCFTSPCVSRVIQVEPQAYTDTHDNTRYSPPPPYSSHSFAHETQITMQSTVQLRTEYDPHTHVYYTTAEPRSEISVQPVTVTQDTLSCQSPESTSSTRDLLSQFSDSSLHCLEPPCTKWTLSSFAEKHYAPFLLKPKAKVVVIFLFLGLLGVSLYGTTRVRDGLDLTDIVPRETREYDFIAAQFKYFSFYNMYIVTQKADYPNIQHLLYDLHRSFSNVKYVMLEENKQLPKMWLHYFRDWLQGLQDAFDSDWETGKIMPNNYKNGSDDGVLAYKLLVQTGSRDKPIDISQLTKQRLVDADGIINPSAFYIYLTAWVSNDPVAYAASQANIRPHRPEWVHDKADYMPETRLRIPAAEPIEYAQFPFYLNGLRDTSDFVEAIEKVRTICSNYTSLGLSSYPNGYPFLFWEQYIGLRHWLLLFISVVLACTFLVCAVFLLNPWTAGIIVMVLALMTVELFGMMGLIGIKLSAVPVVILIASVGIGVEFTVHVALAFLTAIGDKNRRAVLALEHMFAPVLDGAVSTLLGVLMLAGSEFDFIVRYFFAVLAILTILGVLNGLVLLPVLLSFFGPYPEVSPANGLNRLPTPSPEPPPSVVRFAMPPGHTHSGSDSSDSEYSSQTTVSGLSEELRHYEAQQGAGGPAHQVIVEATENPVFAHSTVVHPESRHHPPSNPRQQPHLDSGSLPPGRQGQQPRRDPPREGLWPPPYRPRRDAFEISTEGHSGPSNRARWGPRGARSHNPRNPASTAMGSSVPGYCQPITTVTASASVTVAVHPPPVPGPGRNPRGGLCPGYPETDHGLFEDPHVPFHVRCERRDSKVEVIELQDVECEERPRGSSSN
Description: The screening of molecules on yeast was carried out as described in [18]. Briefly, S. cerevisiae expressing human Ptch1 were grown at 30 °C up to an OD600 between 1 and 2in minimal medium containing 2% of glucose and amino acid cocktail without leucine, and then diluted in rich medium containing 2% glucose in 96-well plates. An amount of 10 µM of molecules to be tested was added in 8 wells (10 molecules can be tested on one plate) and 10 µM of dxr was added to half of the wells. Plates were incubated at 18 °C on a shaker at 1250 rpm (microtiter plate shaker SSL5 Stuart) and absorbance at 600 nm was recorded for about 72 h.
Figure 1 P136 inhibits doxorubicin efflux activity of hPtch1 when expressed in yeast. (A) P136 inhibits the resistance of hPtch1-expressing yeast to doxorubicin. hPtch1-expressing yeast were grown in the presence of 10 µM of P136, P298 or P375, and in the presence or absence of 10 µM doxorubicin (dxr). DMSO was used as control. The growth of yeast was measured by absorbance at 600 nm. (B) P136 inhibits the efflux of doxorubicin of hPtch1-expressing yeast. hPtch1-expressing yeast and control yeast were incubated with dxr for 2 h and fixed for dxr loading control or resuspended in buffer containing DMSO or 10 μM P136 for 10 min, fixed and deposited on a coverslip for analysis by fluorescence microscopy. The dxr fluorescence of 100 yeast for each condition from 3 independent experiments was quantified using the ImageJ software. […] Significance is attained at p < 0.05 (*) (***: p < 0.0005, ****: p < 0.00005, ns: no significant difference).

[4] = Distribution coefficient octanol/PBS pH 7.4; type: physicochemical; settings: read-out: LogD7.4
[5] = tested on: caspase 3/7 activity; experiment: Apoptosis measurement (Caspase-Glo 3/7) in H295R cells; type: cell-based, human; settings: 48 h, 0.5 µM astemizole, no dxr
Description: Quantification of caspase 3/7 activity was performed using the luminescent assay Caspase-Glo 3/7 (Promega, Charbonnières-les-Bains, France) and a luminometer (Glomax 96 Microplate Luminometer from Promega, Charbonnières-les-Bains, France) following the manufacturer’s protocol.

[6] = tested on: H295R cells
[7] = tested on: HaCaT keratinocytes; experiment: Cell viability of HaCaT keratinocytes (48 h); type: cell-based, human; settings: 10 µM astemizole
[8] = target: T1, Ptch1; experiment: BODIPY-cholesterol efflux measurement in H295R cells; type: cell-based; parameters: endogenous in cells; host or cells: H295R; settings: H295R cells loaded with BODIPY-cholesterol 2 h, then 30 min efflux buffer with 10 µM astemizole
Description: (§2) After 2 h, some coverslips were immediately fixed with PFA and mounted in SlowFade Gold antifade reagent containing DAPI (Invitrogen) for loading control.
(§3) Images were acquired with a Zeiss Axioplan 2 fluorescence microscope coupled to a digital charge-coupled device camera using a 63X objective for yeast or a 40X /1.3 Plan NeoFluar objective for cells, and filters for Alexa 594 or FITC for dxr or Bo-chol analysis, respectively. Dxr or Bo-chol fluorescence was quantified using the ImageJ software. About 100 yeast/cells (from three wells) were scored per condition.
(§4) After 2 h, 3 coverslips were fixed for dxr or Bo-chol loading control. […] Images were acquired using fluorescence microscopy and a 40x objective. Fluorescence was quantified using the Image J software for 100 cells per condition.

[9] = target: T1, Ptch1; experiment: Doxorubicin efflux measurement in H295R cells; type: cell-based; parameters: endogenous in cells; host or cells: H295R; settings: H295R cells loaded with 10 µM dxr 2 h, then 30 min efflux buffer with 10 µM astemizole
Description: as §2, §3, §4

[10] = tested on: H295R cells; experiment: Spheroid formation in 3D culture of H295R cells; type: cell-based, human; settings: 14 days
Description: H295R cells were cultured in DMEM/F-12, 2% NuSerum, 1% ITS Plus and penicillin/streptomycin supplemented with 20 µg/µL EGF and 20 µg/µL FGF. […] After 14 days, images of each well were taken using a cell imaging multi-mode reader (Cytation 5 from Bio Tek, Colmar, France). Then, 100 µL of the medium was removed from each well and 100 µL of Cell Titer Glow 3D reagent (Promega) was added. Spheroids were disrupted according to the protocol from the Cell Titer Glow 3D Viability Assay (Promega) and viability was measured in a microplate reader at 550 nm (Multiskan Go Microplate Spectrophotometer, Thermo Scientific).

[11] = Metabolic stability in rat liver microsomes; type: in vitro ADME; settings: NADPH, read-out: RLM T1/2
Description: (§5) Profiling and PK studies were performed by GalenAuxi Co (Oxford, UK) as previously described. […] Plasma samples (50 μL) were collected via the facial vein at 3, 10, 30, 60, 120, 240, 360 and 1440 min post-dose for the IV group, and at 10, 30, 60, 120, 240, 360, 480 and 1440 min post-dose for the PO group in K2EDTA-coated tubes, mixed gently and centrifuged at 2500 g for 15 min at 4 °C within 1 h after collection. For control animals, blood was collected by cardiac puncture. Plasma samples were prepared in acetonitrile for LC-MS/MS analysis. Peak areas were recorded and the concentrations of the test compound in the unknown plasma samples were determined using the respective calibration curve.
(§6) We determined its lipophilicity described by the distribution constant LogD, its solubility, which is an important parameter since water is the solvent of choice for the liquid pharmaceutical formulation, its metabolic stability measured in the presence of rat and human microsomes and NADPH, and its ability to bind to proteins.

[12] = Metabolic stability in human liver microsomes; type: in vitro ADME; settings: NADPH, read-out: HLM T1/2
Description: as §5, §6

[13] = Cytotoxicity assay (neutral red, 48 h) on H295R cells; type: cell-based, human; settings: human, H295R cells at 80% confluence
Description: as §1

[14] = tested on: MeWo cells; experiment: Doxorubicin efflux in MeWo melanoma cells; type: cell-based, human; settings: 30 µM astemizole, 30 min
[15] = Human plasma protein binding; type: in vitro ADME; settings: read-out: Ppb
[16] = Cell viability of MeWo melanoma cells (48 h); settings: human, MeWo melanoma cells
Description: (§7) Cell viability was measured after 48 hours
(§8) doxorubicin (dxr) 2 μM. The graphs reported are representative of more than 3 independent
(§9) Cell viability was measured after 48 hours treatment
(§10) the mean ± SEM values of 3 independent experiments. Significance, calculated using ANOVA
(§11) multiple comparison test and Bonferroni correction, was attained at p < 0.05 (*) (***: p < 0.0005).

[17] = tested on: MeWo cells; experiment: Cell viability of MeWo melanoma cells (48 h); settings: MeWo cells, 48 h, serial dilutions of astemizole with 2 µM dxr
Description: as §7, §8, §9, §10, §11

[18] = target: T2, hPtch1 (Homo sapiens, UniProt Q13635); experiment: Doxorubicin efflux measurement in hPtch1-expressing yeast (fluorescence microscopy); type: cell-based; settings: 10 µM P136 in efflux buffer, 10 min, 2-deoxy-D-glucose
T2 construct: expressed in transfected cells; host or cells: Saccharomyces cerevisiae strain K699
T2 sequence (Q13635 1-1447): T1 sequence (Q13635 1-1447)
Description: Efflux measurements were carried out as described in [19]. On yeast: hPtch1-expressing yeasts or control yeasts were grown to an OD600 of 5, centrifuged, washed with cold water and resuspended in HEPES–NaOH buffer (pH 7.0) containing 5 mM 2-deoxy-D-glucose and 10 µM dxr for 2 h at 4 °C. […] Yeasts were centrifuged, resuspended in 4% PFA and deposited on a coverslip with SlowFade Gold antifade reagent containing DAPI (Invitrogen).
as §3
Figure 1 P136 inhibits doxorubicin efflux activity of hPtch1 when expressed in yeast. […] The growth of yeast was measured by absorbance at 600 nm. (B) P136 inhibits the efflux of doxorubicin of hPtch1-expressing yeast. hPtch1-expressing yeast and control yeast were incubated with dxr for 2 h and fixed for dxr loading control or resuspended in buffer containing DMSO or 10 μM P136 for 10 min, fixed and deposited on a coverslip for analysis by fluorescence microscopy. […]

[19] = Solubility in aqueous buffer (PBS, pH 7.4); type: physicochemical
[20] = tested on: H295R cells; experiment: Synergy analysis of drug combination (Chou-Talalay) on H295R cells; type: cell-based, human; settings: 48 h, dxr with 1 µM astemizole
Description: Synergy analysis was performed using the Chou-Talalay method for drug combination as described in [21, 22]. […] Normalized isobolograms and Chou-Talalay’s plots (Fa-CI plot were Fa is the fraction affected and CI is the combination index) were created using the Compusyn Software (Version 1.0 downloaded from www.combosyn.com). These allow quantitative determination of drug interactions, where CI < 1 (below the diagonal), =1 (diagonal) and >1 (above the diagonal) indicate synergism, additive effect and antagonism, respectively. Dose-reduction index (DRI) is reported.

[21] = tested on: H295R cells; experiment: Clone formation of H295R cells (14 days, crystal violet); type: cell-based, human; settings: combination of dxr and astemizole
Description: After 14 days, clones were stained with crystal violet and pictures were taken. Cells were then solubilized and absorbance was measured in a microplate reader at 550 nm (Multiskan Go Microplate Spectrophotometer, Thermo Scientific, Illkirch, France).

IC50 [2]: 0.1 ± 0.02 µM
Compound: COc1cccc2c1C(=O)c1c(O)c3c(c(O)c1C2=O)C[C@@](O)(C(=O)CO)C[C@@H]3O[C@H]1C[C@H](N)[C@H](O)[C@H](C)O1 [Dxr, Doxorubicin hydrochloride]
IC50 ([1]; Homo sapiens, NCI-H295R, read-out: Dxr-IC50 Without Astemizole, H295R cells, neutral red, mean ± SEM of 3 experiments): 17.3 ± 3.6 µM

Compound: CSc1ccc2c(c1)C(N1CCN(C)CC1)Cc1ccccc1S2 (stereo not drawn) [P375, methiothepin maleate]
effect on resistance/growth of hPtch1-expressing yeast in the presence of dxr [3]: significantly inhibited the resistance of hPtch1-expressing yeast to dxr

logD [4]: 3.5 | Bo-chol kept inside the cells [8]: about 95% | dxr kept inside the cells [9]: about 73% | half-life [11]: 31 min | half-life [12]: > 60 min | fraction unbound [15]: 0.01 | solubility [19]: 22.1 µM (≈ 10.1 µg/mL)
Compound: COc1ccc(CCN2CCC(Nc3nc4ccccc4n3Cc3ccc(F)cc3)CC2)cc1 [astemizole, Astemizole]
effect of astemizole by itself on caspase 3/7 activity [5]: does not affect caspase 3/7 activity by itself | effect of astemizole by itself on cell viability ([6]; 7 days, 0.5 µM astemizole, no dxr): does not affect cell viability by itself | effect of astemizole alone on proliferation ([6]; serial dilution of astemizole for 7 days): inhibited their proliferation | effect on keratinocyte viability [7]: very slight effect on keratinocyte viability | spheroid size with combination dxr + astemizole [10]: significantly smaller | IC50 at 48 h [13]: ~7 µM | increase of the efficacy of dxr combined with etoposide and mitotane (EDM) by astemizole ([1]; H295R cells, 1 µM astemizole, dxr + 10 µM etoposide + 10 µM mitotane): about eight times | increase of the cytotoxicity of dxr by astemizole ([1]; H295R cells, 1 µM astemizole, dxr alone): about 10 times | toxicity of astemizole by itself to ACC cells ([1]; H295R cells, 1 µM astemizole, no dxr): not toxic to ACC cells by itself | effect on dxr efflux from melanoma cells [14]: inhibits dxr efflux from melanoma cells | IC50 at 48 h [16]: ~7 µM | effect on dxr cytotoxicity in melanoma cells [17]: increases dxr cytotoxicity | effect on amount of dxr in hPtch1-expressing yeast (dxr efflux) [18]: increases the amount of dxr in hPtch1-expressing yeast significantly more than in control yeast | cooperativity indices (CI), dxr and astemizole [20]: below 1 | effect on resistance/growth of hPtch1-expressing yeast in the presence of dxr [3]: able to inhibit the growth of hPtch1-expressing yeast in the presence of dxr | effect on growth of hPtch1-expressing yeast in the absence of dxr ([3]; no dxr): without effects on the growth of hPtch1-expressing yeast in the absence of dxr | increase of the anti-clonogenic activity of dxr [21]: increased four times
